The text below walks through data of patent publication US9573907B2, “2, 4-pyrimidine derivatives and use thereof” (SNU R&DB FOUNDATION, priority 2009, dated 2017).

Entries after “also recorded” stand apart in the source; their conditions may differ.

One series has as its system HL-60 cell lines. As to the kind of experiment: FACS analysis of gp96 on cell surface of HL-60 cell lines. The format is cell-based. The note with it: 1 mM, 24 hours. The protocol:
FIG. 35 is a graph showing an FACS analysis result using gp96 antibody, on the amount of gp96 protein existing on a cell surface, when HL-60 cell lines were treated with a 2,4-pyrimidine derivatives at a concentration of 1 mM for 24 hours.
Also, HL-60 cell lines were treated with a 2,4-pyrimidine derivative at a concentration of 1 mM for 24 hours, and the amount of gp96 protein existing on a cell surface was analyzed through flow cytometry (FACS) using gp96 antibody.
Turning to `COC(=O)C(C)(C)Oc1nc(OC)cc(OC)n1` [KR-S-013, 2-(4,6-Dimethoxy-pyrimidin-2-yloxy)-2-methyl-propionic acid methyl ester], the “amount of gp96 protein existing on a cell surface” value (“amount of gp96 protein existing” for short) is “better effects than KR-S-015”.

For `COc1cc(OC)nc(OC(C(=O)O)C(C)C)n1` (stereo not drawn) [KR-S-009, 2-(4,6-dimethoxy-pyrimidin-2-yloxy)-3-methyl-butyric acid], the “amount of gp96 protein existing” value is “better effects than KR-S-015”.

`COc1cc(OC)nc(OC(C(=O)N2CCCCC2)C(C)C)n1` (stereo not drawn) [KR-S-007, 2-(4,6-dimethoxy-pyrimidin-2-yloxy)-3-methyl-1-piperidin-1-yl-butan-1-one]: the “amount of gp96 protein existing” value is on record as “better effects than KR-S-015; also recorded: better than ester (KR-S-010) or acid (KR-S-009)”.

With `COC(=O)CC(C)Oc1nc(OC)cc(OC)n1` [KR-S-014, D-3-(4,6-Dimethoxy-pyrimidin-2-yloxy)-butyric acid methyl ester], the “amount of gp96 protein existing” value was “better effects than KR-S-015”.

Turning to `COC(=O)[C@@H](C)Oc1nc(OC)cc(OC)n1` [KR-S-012, D-2-(4,6-Dimethoxy-pyrimidin-2-yloxy)-propionic acid methyl ester], the “amount of gp96 protein existing” value was “better effects than KR-S-015; also recorded: better than isopropyl (KR-S-009, KR-S-010)”.

With `COc1cc(OC)nc(O[C@H](C(=O)O)C(C)C)n1` [KR-S-022, L-2-(4,6-Dimethoxy-pyrimidin-2-yloxy)-3-methyl-butyric acid], the “amount of gp96 protein existing” value is recorded as “better effects than KR-S-015”.

For `COc1cc(OC)nc(OC(C(=O)N2CCOCC2)C(C)C)n1` (stereo not drawn) [KR-S-008, 2-(4,6-dimethoxy-pyrimidin-2-yloxy)-3-methyl-1-morpholin-4-yl-butan-1-one], the “amount of gp96 protein existing” value is recorded as “better effects than KR-S-015; also recorded: better than ester (KR-S-010) or acid (KR-S-009)”.

Regarding `COc1cc(OC)nc(OC(C(=O)N(C)OC)C(C)C)n1` (stereo not drawn) [KR-S-006, 2-(4,6-dimethoxy-pyrimidin-2-yloxy)-N-methoxy-3,N-dimethyl-butyl amide], the “amount of gp96 protein existing” value was “better effects than KR-S-015; also recorded: better than ester (KR-S-010) or acid (KR-S-009)”.

In the next series the test system is gp96tm transgenic mice.
Assay: not given
The note with it: 2-month intraperitoneal administration, 30 mg/kg. The protocol: Female gp96tm transgenic mice (Proc Natl Acad Sci USA. 2003 December 23; 100(26): 15824-15829) were bred and maintained at the animal center for pharmaceutical research, Seoul National University. We used age-matched, 12-26 weeks old mice in each experimental group. To suppress cell surface gp96 we used GPM1 compound. Dexamethasone and GPM1 were dissolved in 5% DMSO in phosphate-buffered saline (PBS) and control vehicle was 5% DMSO in PBS. Compounds were administered i.p. every 24 h for 2 months (30 mg/kg/day). Three groups of each 9 mice were examined. All procedures were conducted in accordance with the Guide for the Care and Use of Laboratory Animals, published by the Korean National Institute of Health.
Spleen and lymph node cell suspensions were prepared by grindling tissue through sterile mesh and erythrocytes were lysed with RBC lysis buffer (eBioscience, CA). For surface staining, antibodies were fluoresceinisothiocyanate (FITC)-, phycoerythrin (PE)-, PerCP-, or APC-conjugated. Antibodies used were CD4 (RM4-5, H129.12), CD8 (53-6,7), B220 (RA3-6B2), CD11b (M1/70), CD11c (HL3), CD44 (IM7), CD62L (MEL-14), CD69 (H1.2F3), CD25 (PC61.5), IgM (11/41), IgD (11-26C.2a) (BD Pharmingen, CA), MHC class II (M5/114.15.2), Foxp3 (FJK-16s) (eBioscience, CA), and gp96 (Santacruz, Calif.). After staining, cells were washed and analyzed on a FACS can flow cytometer using CellQuest software (BD Bioscience, Mountain View, Calif.).
Kidney tissue sections of gp96tm transgenic mice were fixed in 10% formaldehyde in PBS and dehydrated using an alcohol gradient. After paraffin infiltration, the tissues were sectioned using a microtome, stained with hematoxylin and eosin (H&E) and analyzed by light microscopy. For immunofluorescent staining, kidneys were sectioned with a cryostat. These cryosections were blocked with normal goat serum, stained with FITC-conjugated goat anti-mouse Ig (BD pharmingen, CA), and then observed by fluorescent microscopy.
The present inventors compared the effect of GPM1 with phosphate-buffered saline containing 5% DMSO and dexamethasone (Dex), an immunosuppressant of glucocorticoid family as negative and positive control, respectively. Each group consisted of age-matched nine female mice. […] After 2 month, the present inventors isolated MHC class II^+ splenocytes and lymph nodes from vehicle-, Dex-, and GPM1-treated mice and determined the portion of gp96^+ cells by flow cytometry.
As to `C[C@@H]1C[C@H]2[C@@H]3CCC4=CC(=O)C=C[C@]4(C)[C@@]3(F)[C@@H](O)C[C@]2(C)[C@@]1(O)C(=O)CO` [dexamethasone, reference compound], the “adverse effects / death during administration” value is listed as “two of nine”.

Staying with this series, now noted: mouse, in vivo, 30 mg/kg/day.
`C[C@@H]1C[C@H]2[C@@H]3CCC4=CC(=O)C=C[C@]4(C)[C@@]3(F)[C@@H](O)C[C@]2(C)[C@@]1(O)C(=O)CO` [dexamethasone, reference compound]: the “total cell count (spleen)” value is 4.80 ± 2.38 × 10^5.

Still in this series, the particulars now being: splenocytes, after 2 month, 30 mg/kg.
For `C[C@@H]1C[C@H]2[C@@H]3CCC4=CC(=O)C=C[C@]4(C)[C@@]3(F)[C@@H](O)C[C@]2(C)[C@@]1(O)C(=O)CO` [dexamethasone, reference compound], the “percentages of gp96+ MHC class II+ cells” value was ~25%.

In the next series the target is interaction of gp96 and AIMP1 (Mus musculus, UniProt P08113). As to the kind of experiment: ELISA assay of gp96-AIMP1 interaction. The format is binding, murine. The note with it: read-out: Inhibition rate (at 100 nM; %). The protocol: FIGS. 1 to 9 represent suppression of cell surface gp96 by GPM1 reduces DC maturation and B220^+ population in gp96tm transgenic mice. (FIG. 1) Chemical structure of GPM1 (Formula 2) and negative control (NC1, Formula 16) used in this study. (FIG. 2) The dose-dependent effect of GPM1 or NC1 on the AIMP1-gp96 interaction using ELISA method as described. The indicated concentrations of the two compounds and biotin-conjugated murine gp96 were added to AIMP1 coated on the surface of microtiter wells, and gp96 bound to AIMP1 was detected with strepavidin-conjugated peroxidase. (FIG. 3) The binding of GPM1 to gp96 was examined by surface plasmon resonance (SPR). GPM1 at the indicated concentrations was injected to immobilized gp96 and the binding was measured using Biacore 3000. The response data were processed using data from a reference surface and buffer injections. Each concentration was tested in triplicate. (FIG. 4) RAW24.7 cells were treated with 10 μM GPM1 for 24 h. Cell lysates were immunoprecipitated with control IgG or anti-gp96 antibody and the immunoprecipitated proteins were immunoblotted with anti-KDELR1, antiAIMP1 and gp96 antibodies. WCL means whole cell lysate. (FIG. 5) Splenocytes isolated from C57BL/6 mice were treated with vehicle (5% DMSO in PBS), GPM1, or NC1 (10 μM, 24 h), stained for cell surface gp96, and followed by flow cytometry. (FIG. 6) AIMP1^+/+ or AIMP1^−/− mouse splenocytes (2×10^5 cells) were treated with vehicle, GPM1, or NC1 (10 μM, 24 h), fixed, and then co-cultured with WT bone marrow-derived DCs (1×10^4 cells) for 16 h. TNFα secreted from BMDCs was quantified by ELISA. (FIG. 7) Percentage of gp96^+ MHC class II^+ cell population in splenocytes from gp96tm transgenic female mice treated with vehicle (control) (n=9), GPM1 (n=9), and dexamethasone (n=7) at 30 mg/kg. (FIG. 8) Cell surface ICOSL of CD11b^+CD11c^+ (myeloid DCs), CD11b^−CD11c^+ (lymphoid DCs), and CD11b^+CD11c^− (macrophages) cell populations in splenocytes from gp96tm transgenic female mice treated with vehicle (n=9) and GPM1 (n=9) at 30 mg/kg. (FIG. 9) Percentage of B220^+, MHC class II^+, CD4^+, CD8^+, CD4 and CD8 double negative cell populations in splenocytes from gp96tm transgenic female mice treated with vehicle (n=9), GPM1 (n=9), and dexamethasone (n=7) at 30 mg/kg. Student t-test P values comparing GPM1-treated mice with control are indicated.
interaction of gp96 and AIMP1, sequence (P08113 22-802): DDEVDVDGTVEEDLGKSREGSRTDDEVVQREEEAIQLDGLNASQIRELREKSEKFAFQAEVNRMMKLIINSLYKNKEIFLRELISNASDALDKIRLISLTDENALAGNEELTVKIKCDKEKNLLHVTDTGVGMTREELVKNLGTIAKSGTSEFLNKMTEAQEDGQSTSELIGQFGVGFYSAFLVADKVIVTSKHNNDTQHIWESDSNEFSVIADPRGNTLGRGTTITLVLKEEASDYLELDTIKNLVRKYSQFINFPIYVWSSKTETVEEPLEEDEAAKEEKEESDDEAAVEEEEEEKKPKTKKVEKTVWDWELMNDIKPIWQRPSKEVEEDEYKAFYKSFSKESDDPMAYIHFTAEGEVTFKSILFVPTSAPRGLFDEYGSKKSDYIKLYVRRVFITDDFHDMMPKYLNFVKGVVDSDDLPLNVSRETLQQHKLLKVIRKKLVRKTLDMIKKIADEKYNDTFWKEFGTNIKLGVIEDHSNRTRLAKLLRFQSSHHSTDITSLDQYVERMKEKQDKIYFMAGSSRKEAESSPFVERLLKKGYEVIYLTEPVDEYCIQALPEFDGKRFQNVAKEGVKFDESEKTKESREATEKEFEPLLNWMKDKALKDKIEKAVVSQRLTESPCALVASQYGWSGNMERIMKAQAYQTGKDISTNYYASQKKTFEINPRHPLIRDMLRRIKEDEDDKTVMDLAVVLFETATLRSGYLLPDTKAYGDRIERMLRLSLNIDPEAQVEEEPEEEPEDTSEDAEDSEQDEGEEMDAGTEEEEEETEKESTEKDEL
96-well plates (Maxisorp., F96; Nunc) were coated with 500 ng/well AIMP1 in PBS (pH 7.4). After washing, the remaining sites were blocked with PBS containing 1% BSA for 1 h. Binding of 10 ng/well biotin-conjugated gp96 was performed in Tris buffer (25 mM Tris, 10 mM NaCl and 0.4% Triton X-100). Each of the 6,580 compounds was added to the well at 100 nM and the plates were washed and incubated with HRP conjugated streptavidin in PBS containing 0.1% BSA and 0.1% Tween 20 for 30 min. The plates were washed, and then substrate was added to each well. The absorbance was monitored at 450 nm.
To identify chemicals that can affect membrane translocation of gp96, the present inventors employed the interaction of gp96 with AIMP1 as the screening target. For this screening, the present inventors chose 6,482 chemicals with different pharmacophore representing 150,000 different chemicals deposited in Korea Chemical Bank and identified the compounds that can inhibit the interaction of the two proteins. For the screening, the present inventors set up a modified ELISA method using recombinant AIMP1 and gp96 proteins as described in Experimental methods. Each of the tested compounds gave different effect on the interaction of the two proteins (FIG. 19). And the present inventors have selected 12 compounds that inhibited the interaction more than 95% of the control at 0.1 μM (Table 1). The present inventors obtained 1251 additional compounds derived from these 12 initial hits and tested them again for their activities against the gp96-AIMP1 interaction.
Turning to `CC(C)(C)Oc1ncc(-c2ccccn2)c(OC(C)(C)C)n1` [Formula 13, 2,4-di-tert-butoxy-5-(pyridin-2-yl)pyrimidine], the inhibition at 0.1 µM was 86%.

With `COc1cc(OC)nc(OC(C(=O)O)c2ccccc2)n1` (stereo not drawn) [Formula 7, 2-(4,6-dimethoxypyrimidin-2-yloxy)-2-phenylacetic acid], the inhibition at 0.1 µM was 99%.

On to `COc1cc(OC)nc(Oc2ccncc2)n1` [Formula 11, 4,6-dimethoxy-2-(pyridin-4-yloxy)pyrimidine], for which the inhibition at 0.1 µM is 95%.

Turning to `COc1cc(OC)nc(O[C@@H](C(=O)O)c2ccccc2)n1` [Formula 8, (R)-2-(4,6-dimethoxypyrimidin-2-yloxy)-2-phenylacetic acid], the inhibition at 0.1 µM was 30%.

For the molecule `COc1nc(OCc2ccccc2)nc(OC)c1C(N)=O` [Formula 9, 2-(benzyloxy)-4,6-dimethoxypyrimidine-5-carboxamide], the inhibition at 0.1 µM was determined as 90%.

Regarding `COC(=O)C(Oc1nc(OC)cc(OC)n1)c1cccs1` (stereo not drawn) [Formula 6, methyl 2-(4,6-dimethoxypyrimidin-2-yloxy)-2-(thiophen-2-yl)acetate], the inhibition at 0.1 µM is 71%.

Take `COc1cc(OC)nc(Oc2cccnc2N)n1` [Formula 15, 3-(4,6-dimethoxypyrimidin-2-yloxy)pyridin-2-amine]: the inhibition at 0.1 µM stood at 54%.

In the case of `COC(=O)C(C)Oc1nc(C)c(Cl)c(OC)n1` (stereo not drawn) [Formula 3, methyl 2-(5-chloro-4-methoxy-6-methylpyrimidin-2-yloxy)propanoate], the inhibition at 0.1 µM is 97%.

With `COC(=O)C(Oc1nc(OC)cc(OC)n1)C(C)C` (stereo not drawn) [Formula 5, methyl 2-(4,6-dimethoxypyrimidin-2-yloxy)-3-methylbutanoate], the inhibition at 0.1 µM was found to be 82%.

`CC(C)(C)Oc1cc(OC(C)(C)C)nc(Oc2cccnc2)n1` [Formula 12, 4,6-di-tert-butoxy-2-(pyridin-3-yloxy)pyrimidine]: the inhibition at 0.1 µM came to 86%.

`Oc1nc(Oc2ccc(F)c(C(F)(F)F)c2)cc(Oc2ccc(F)c(C(F)(F)F)c2)n1` [Formula 14, 4,6-bis(4-fluoro-3-(trifluoromethyl)phenoxy)pyrimidin-2-ol]: the inhibition at 0.1 µM came to 84%.

Take `COC(=O)C(Oc1nc(OC)cc(OC)n1)c1ccc(Br)cc1` (stereo not drawn) [Formula 4, methyl 2-(4-bromophenyl)-2-(4,6-dimethoxypyrimidin-2-yloxy)acetate]: the inhibition at 0.1 µM came out at 94%.

For `COc1cc(OC)nc(OCc2ccccc2Cl)n1` [Formula 10, 2-(2-chlorobenzyloxy)-4,6-dimethoxypyrimidine], the inhibition at 0.1 µM was determined as 76%.
